Measured values taken from ChEMBL document CHEMBL1131987, “Structure-activity studies on a novel series of cholinergic channel activators based on a heteroaryl ether framework” (Bioorg Med Chem Lett, 1999).

target: Neuronal acetylcholine receptor; alpha4/beta2 (Rattus norvegicus, UniProt P09483+P12390); assay: Nicotinic acetylcholine receptor binding activity was determined by ability to displace [3H]- (-) cytisine binding from whole rat brain synaptic membranes.
Sequence (P09483 whole entry): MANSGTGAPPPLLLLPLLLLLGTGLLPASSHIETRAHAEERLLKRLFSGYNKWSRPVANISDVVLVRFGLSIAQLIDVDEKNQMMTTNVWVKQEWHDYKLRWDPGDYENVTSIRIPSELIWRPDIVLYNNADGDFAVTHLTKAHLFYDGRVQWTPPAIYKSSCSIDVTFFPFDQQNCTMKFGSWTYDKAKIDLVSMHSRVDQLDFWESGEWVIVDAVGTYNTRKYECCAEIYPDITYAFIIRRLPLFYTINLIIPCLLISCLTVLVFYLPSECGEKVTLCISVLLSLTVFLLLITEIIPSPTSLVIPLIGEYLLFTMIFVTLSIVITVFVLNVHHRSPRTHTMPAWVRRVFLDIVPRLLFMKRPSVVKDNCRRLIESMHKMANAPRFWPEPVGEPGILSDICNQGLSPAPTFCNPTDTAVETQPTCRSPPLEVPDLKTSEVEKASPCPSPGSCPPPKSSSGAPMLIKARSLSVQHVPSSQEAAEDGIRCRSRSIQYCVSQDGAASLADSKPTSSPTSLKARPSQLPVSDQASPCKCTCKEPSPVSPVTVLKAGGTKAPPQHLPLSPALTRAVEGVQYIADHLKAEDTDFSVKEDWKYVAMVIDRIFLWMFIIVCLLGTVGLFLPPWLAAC
Sequence (P12390 whole entry): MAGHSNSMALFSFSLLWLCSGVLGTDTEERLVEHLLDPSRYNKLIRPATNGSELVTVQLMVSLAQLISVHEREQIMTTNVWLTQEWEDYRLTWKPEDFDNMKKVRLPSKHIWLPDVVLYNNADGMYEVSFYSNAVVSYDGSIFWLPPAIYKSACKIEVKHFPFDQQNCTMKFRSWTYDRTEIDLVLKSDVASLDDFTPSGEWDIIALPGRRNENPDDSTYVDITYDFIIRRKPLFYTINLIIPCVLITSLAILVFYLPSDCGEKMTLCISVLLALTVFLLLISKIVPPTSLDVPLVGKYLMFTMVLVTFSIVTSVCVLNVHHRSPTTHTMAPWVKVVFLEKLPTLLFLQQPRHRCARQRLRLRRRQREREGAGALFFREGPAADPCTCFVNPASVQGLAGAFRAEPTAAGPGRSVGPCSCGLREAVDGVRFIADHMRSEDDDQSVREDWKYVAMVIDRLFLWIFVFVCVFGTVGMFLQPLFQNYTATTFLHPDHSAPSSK

Point of comparison: `c1ncc(OC[C@@H]2CCN2)cn1`, Ki 0.13 nM. Against it:
- CN1CCC(OCc2cccnc2)C1 (configuration not stated) — 92000-fold higher, 11900 nM
- CN1CC[C@H]1COc1cncnc1 — 50-fold higher, 6.54 nM
- CN1CC[C@H]1COc1cccnn1 — 220-fold higher, 28.2 nM
- CN1CCC(Oc2ccc(Cl)nn2)C1 (configuration not stated) — 360-fold higher, 46.4 nM
- CN1CCC[C@H]1COc1cccnn1 — 320-fold higher, 42.1 nM
- CN1CC[C@H]1COc1ccc(Cl)nn1 — 490-fold higher, 63.8 nM
- Clc1ccc(OC[C@@H]2CCN2)nn1 — 120-fold higher, 15.4 nM
- CN1CCC[C@H]1COc1ccc(Cl)nn1 — 220-fold higher, 29 nM
- CN1CCC(Oc2ccccn2)C1 (configuration not stated) — higher, > 10000 nM
- CN1CCC(Oc2cnccn2)C1 (configuration not stated) — 2800-fold higher, 359 nM
- CN1CCC[C@@H]1COc1cnccn1 — 3100-fold higher, 406 nM
- CN1CC[C@@H](Oc2cccnc2)C1 — 34-fold higher, 4.44 nM
- Clc1ccc(OCCN2CCCC2)nn1 — 10000-fold higher, 1300 nM
- CN1CCC[C@H]1COc1ccccn1 — 3800-fold higher, 495 nM
- CN1CCC[C@H]1COc1cnccn1 — 130-fold higher, 16.3 nM
- c1cnc(OCCN2CCCC2)cn1 — 4300-fold higher, 560 nM
- CN1CCC[C@H]1COc1ncccn1 — 9400-fold higher, 1220 nM
- CN1CCC[C@@H]1COc1ccc(Cl)nn1 — 660-fold higher, 85.3 nM
- c1cncc(OCCN2CCCC2)c1 — 1800-fold higher, 240 nM
- CN1CC[C@H](Oc2cccnc2)C1 — 21-fold higher, 2.67 nM
- c1ccc(OCCN2CCCC2)nc1 — 1200-fold higher, 160 nM
